Results: patent US20220233624A9, “ANTI-CANCER AND ANTI-PROLIFERATIVE COMPOSITIONS, AND METHODS FOR THEIR USE IN TREATING CANCER” (Natreon, Inc., priority 2020, published 2022)
“And” between values parts separate entries of the source, which are not always exact repeats. Equal values may be shown once. Read-outs that look alike come from different tables or passages of the source. Marks after values point to notes of the source that are not given here.

Key:
[1] = test system: Breast Cancer PDCs, ER/PR+ Her2 equivocal (HR+); experiment: Anti-proliferation assay on breast cancer HR+ PDCs; type: cell-based, human; conditions: drug alone @ 3 uM; for inhibition at 3 µM: Homo sapiens; for % Inhibition, single replicates: 3 µM
Experimental: (§1) The outermost rows/columns of the plates were filled with PBS (pH 7.4) to avoid an edge-effect and were considered as blanks. Standardized aqueous extracts identified in Table 2 were prepared in main stock solutions by dissolving 1 mg of extract in 1 ml PBS (phosphate-buffered saline, pH 7.4). […] The plate was incubated in a CO2 incubator for 0/N incubation for 24 hours. […] Once extracts were added to incubated cells and mixed gently, the plate was given a brief spin and incubated in the CO2 incubator for 72 hours. The plate was removed from the incubator and 10 ul of detection reagent (CellTiterGlo®; Promega Corporation, Wisconsin, USA) added to each well of the 384 well plate. […] The assay described above is a two-dimensional (2D) assay.

[2] = test system: Breast Cancer PDCs, ER/PR− Her2+ (Her2+); experiment: Anti-proliferation assay on breast cancer Her2+ PDCs; type: cell-based, human; conditions: drug alone @ 3 uM; for inhibition at 3 µM: Homo sapiens; for % Inhibition, single replicates: 3 µM
Experimental: as §1

[3] = test system: Breast Cancer PDCs, Triple negative (TN), SB 36344; experiment: Anti-proliferation assay on breast cancer TN PDCs; type: cell-based, human; conditions: drug alone @ 3 uM; for inhibition at 3 µM: Homo sapiens; for % Inhibition, single replicates: 3 µM
Experimental: as §1

[4] = test system: colon cancer cells (cell line HT-29); experiment: Anti-proliferation assay on colon cancer cells; type: cell-based; conditions: Homo sapiens
Experimental: (§2) Anti-proliferative and anti-cancer activity of extracts of this invention on non-small cell lung cancer cells and colon cancer cells were assessed generally as described in Example I and are discussed below. […] As noted throughout this application, the below data is intended to describe the present invention but not to be limiting.
(§3) Non-small cell lung cancer cells (cell line NCI-H-358) and colon cancer cells (cell line HT-29) were plated in a 384-well plate in amounts of about 1.25 k cells/well. […] Wells with untreated cells and with plain media were also included as controls. Plates passed quality control parameters.

[5] = test system: TN breast cancer PDCs SB 30750; experiment: Anti-proliferation assay on TN breast cancer PDCs SB 30750; type: cell-based; conditions: Homo sapiens, 3 uM, 72 h
Experimental: In this Example, AyuFlex®, Capros®, and Ayuric® were each applied to different PDCs than previous tests, TN breast cancer PDCs SB 30750, and tested via the anti-proliferation assay described above. […] Incubation times were 72 hours.

[6] = test system: TN Breast Cancer cell line MDAMB-231; experiment: Anti-proliferation assay on MDAMB-231 cells (72 h and 120 h); type: cell-based; conditions: Homo sapiens, MDA-MB-231, 3 uM
Experimental: Also, AyuFlex®, Capros®, and Ayuric® were tested in the anti-proliferative assay discussed above in the TN Breast Cancer cell line MDAMB-231. AyuFlex®, Capros®, and Ayuric® were incubated for 72 hours and 120 hours. The dose-response efficacy of AyuFlex®, Capros®, and Ayuric® after a 72-hour period of incubation was similar to that observed after a 120-hour period of incubation with the MDAMB-231 cells. Without being bound by theory, possibly this was due to saturation of cell growth at the 120-hour time-point.

[7] = test system: colon cancer cells (cell line HT-29); conditions: J. Surg. Res. 111(1):63-69 (2003); read-out: IC50 (published); cited from earlier work
[8] = test system: Non-small cell lung cancer cells (cell line NCI-H-358); experiment: Anti-proliferation assay on non-small cell lung cancer cells; type: cell-based; conditions: Homo sapiens, NCI-H358
Experimental: as §2, §3

[9] = test system: SHP-77 (small cell lung cancer) cells; experiment: Anti-proliferation assay on small cell lung cancer cells; type: cell-based; conditions: Homo sapiens, SHP77
Experimental: SHP-77 (small cell lung cancer) cells were incubated for 72 hours with 100 ug/ml, 30 ug/ml, and 10 ug/ml each of AyuFlex®, Capros® Phyto-BGS®, PrimaVie®, Sensoril®, Ayuric®, and Crominex®, and tested according to the anti-proliferative assay described above. Cells were plated at 1.25 k/well in 384 well plates. Standard of care drug docetaxel was also tested at a 10 uM concentration as a control. Anti-proliferative assays were generally performed as discussed above, in triplicate, with detection reagent CellTiterGlo® as discussed for instance in Example I. Tables 77-79 show data for controls and that the data passed quality control parameters.

[10] = test system: Prostate cancer (PC-3) cells; experiment: Anti-proliferation assay on prostate cancer cells; type: cell-based; conditions: Homo sapiens
Experimental: (§4) Cells were plated at 1.25 k/well in 384 well plates. […] Anti-proliferative assays were generally performed as discussed in Example I above, in triplicate, with detection reagent CellTiterGlo. Tables 80-82 show data for controls for assays on prostate cancer (PC-3 cells), and that the data passed quality control parameters. Tables 83-85 show data for controls for assays on ovarian cancer (OVCAR-3 cells), and that the data passed quality control parameters.

[11] = test system: Ovarian cancer (OVCAR-3) cells; experiment: Anti-proliferation assay on ovarian cancer cells; type: cell-based; conditions: Homo sapiens
Experimental: as §4

[12] = test system: Non-small cell lung cancer cells (cell line NCI-H-358); conditions: Intl. J. Oncol. 31:241-252 (2007); read-out: IC50 (published); cited from earlier work
[13] = read-out: % Inhibition, single replicates
[14] = drug 10 uM, read-out: inhibition of proliferation
[15] = plate control @ 10 uM, read-out: % Inhibition Average (SD)
[16] = plate control @ 10 uM, read-out: % Inhibition n1
[17] = plate control @ 10 uM, read-out: % Inhibition n2
[18] = plate control @ 10 uM, read-out: % Inhibition n3
[19] = 72 hour incubation, read-out: % Inhibition Avg
[20] = 72 hour incubation, read-out: % Inhibition n1
[21] = 72 hour incubation, read-out: % Inhibition n2
[22] = 72 hour incubation, read-out: % Inhibition n3
[23] = 120 hour incubation, read-out: % Inhibition Avg
[24] = 120 hour incubation, read-out: % Inhibition n1
[25] = 120 hour incubation, read-out: % Inhibition n2
[26] = 120 hour incubation, read-out: % Inhibition n3
[27] = 10 uM, 72 h, read-out: % Inhibition Average (SD)
[28] = 10 uM, 72 h, read-out: % Inhibition n1
[29] = 10 uM, 72 h, read-out: % Inhibition n2
[30] = 10 uM, 72 h, read-out: % Inhibition n3
[31] = drug 10 uM, read-out: inhibition

O=c1[nH]cc(F)c(=O)[nH]1 [5-FU, 5-fluorouracil]
inhibition at 3 µM ([1]; read-out: % Inhibition Avg): ~28%
% Inhibition Avg [1]: 29%
% Inhibition, single replicates [1]: 42% and 20% and 23%
inhibition at 3 µM [2]: 18%
% Inhibition, single replicates [2]: 41* % and 16% and 19%
inhibition at 3 µM ([3]; read-out: % Inhibition Avg): 38%
inhibition at 3 µM [3, 13]: 48%
% Inhibition, single replicates [3]: 33%
inhibition at 10 µM [4, 14]: 12%
inhibition at 10 µM [4, 15]: 12%
inhibition at 10 µM [4, 16]: 20%
inhibition at 10 µM [4, 17]: 7%
inhibition at 10 µM [4, 18]: 10%
inhibition at 3 µM ([5]; read-out: % Inhibition Avg): 24%
inhibition at 3 µM ([5]; read-out: % Inhibition n1): 44%
inhibition at 3 µM ([5]; read-out: % Inhibition n2): 14%
inhibition at 3 µM ([5]; read-out: % Inhibition n3): 14%
inhibition at 3 µM [6, 19]: 4%
inhibition at 3 µM [6, 20]: 21%
inhibition at 3 µM [6, 21]: -5%
inhibition at 3 µM [6, 22]: -4%
inhibition at 3 µM [6, 23]: -8%
inhibition at 3 µM [6, 24]: 20%
inhibition at 3 µM [6, 25]: -10%
inhibition at 3 µM [6, 26]: -5%
IC50 [7]: 13 µM

CC(=O)O[C@@]12CO[C@@H]1C[C@H](O)[C@@]1(C)C(=O)[C@H](O)C3=C(C)[C@@H](OC(=O)[C@H](O)[C@@H](NC(=O)OC(C)(C)C)c4ccccc4)C[C@@](O)([C@@H](OC(=O)c4ccccc4)[C@H]21)C3(C)C [Docetaxel, docetaxel]
inhibition at 3 µM ([1]; read-out: % Inhibition Avg): ~59%
inhibition at 3 µM [1, 13]: 67%
% Inhibition, single replicates [1]: 53% and 58%
inhibition at 3 µM [2]: ~50%
% Inhibition, single replicates [2]: 30* % and 43% and 57%
inhibition at 3 µM ([3]; read-out: % Inhibition Avg): ~48%
inhibition at 3 µM [3, 13]: 56%
% Inhibition, single replicates [3]: 44% and 43%
inhibition at 10 µM [8, 14]: 58%
inhibition at 10 µM [8, 15]: 58%
inhibition at 10 µM [8, 16]: 63%
inhibition at 10 µM [8, 17]: 55%
inhibition at 10 µM [8, 18]: 58%
inhibition at 3 µM ([5]; read-out: % Inhibition Avg): 56%
inhibition at 3 µM ([5]; read-out: % Inhibition n1): 68%
inhibition at 3 µM ([5]; read-out: % Inhibition n2): 52%
inhibition at 3 µM ([5]; read-out: % Inhibition n3): 47%
inhibition at 3 µM [6, 19]: 56%
inhibition at 3 µM [6, 20]: 67%
inhibition at 3 µM [6, 21]: 50%
inhibition at 3 µM [6, 22]: 52%
inhibition at 3 µM [6, 23]: 75%
inhibition at 3 µM [6, 24]: 78%
inhibition at 3 µM [6, 25]: 71%
inhibition at 3 µM [6, 26]: 76%
inhibition at 10 µM [9, 27]: 90%
inhibition at 10 µM [9, 28]: 90%
inhibition at 10 µM [9, 29]: 91%
inhibition at 10 µM [9, 30]: 89%
inhibition at 10 µM [9, 31]: 90%
inhibition at 10 µM [10, 27]: 58%
inhibition at 10 µM [10, 28]: 53%
inhibition at 10 µM [10, 29]: 67%
inhibition at 10 µM [10, 30]: 56%
inhibition at 10 µM [10, 31]: 58%
inhibition at 10 µM [11, 27]: 66%
inhibition at 10 µM [11, 28]: 65%
inhibition at 10 µM [11, 29]: 68%
inhibition at 10 µM [11, 30]: 65%
inhibition at 10 µM [11, 31]: 66%
IC50 [12]: 0.367 µM
